Assay results: US11230717B2, “Plants having increased tolerance to herbicides” (BASF SE, priority 2013, dated 2022)
Several values for one entry are separate records, joined by “and”; a condition that tells them apart may be missing. Identical values can stand only once.

Columns and labels:
[1] = molecular target: T1, Hordeum HPPD variant S252T (Hordeum vulgare, UniProt O48604, A164G/R146V/R147D/R148G/S252T); assay: HPPD activity assay, in vitro characterization of HPPD mutants; type: biochemical; settings: normalized to wild-type
T1 construct: His (N); made in house; host or cells: E. coli BL21 (DE3)
T1 sequence (O48604 whole entry R146V/R147D/R148G/A164G/S252T): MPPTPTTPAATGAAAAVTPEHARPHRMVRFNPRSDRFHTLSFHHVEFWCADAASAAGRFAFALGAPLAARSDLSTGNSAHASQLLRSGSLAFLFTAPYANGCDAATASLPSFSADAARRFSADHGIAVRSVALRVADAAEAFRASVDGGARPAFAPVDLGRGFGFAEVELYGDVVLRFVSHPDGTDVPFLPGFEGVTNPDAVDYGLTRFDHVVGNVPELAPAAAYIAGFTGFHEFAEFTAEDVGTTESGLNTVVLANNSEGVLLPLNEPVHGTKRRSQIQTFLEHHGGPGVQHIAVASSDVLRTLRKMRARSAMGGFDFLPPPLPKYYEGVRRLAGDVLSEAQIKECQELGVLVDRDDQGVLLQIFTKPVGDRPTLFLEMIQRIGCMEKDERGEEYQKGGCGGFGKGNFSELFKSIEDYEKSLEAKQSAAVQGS
Protocol: (§1) HPPD produces homogentisic acid and CO2 from 4-hydroxyphenylpyruvate (4-HPP) and O2. The activity assay for HPPD is based on the analysis of homogentisic acid by reversed phase HPLC.
(§2) The assay mixture can contain 150 mM potassium phosphate buffer pH 7.0, 50 mM L-ascorbic acid, 100 μM Catalase (Sigma-Aldrich), 1 μM FeSO4 and 0.2 units of purified HPPD enzyme in a total volume of 505 μl. 1 unit is defined as the amount of enzyme that is required to produce 1 nmol of HGA per minute at 20° C.
(§3) After a preincubation of 30 min the reaction is started by adding 4-HPP to a final concentration of 0.05 mM. The reaction is allowed to proceed for 45 min at room temperature. The reaction is stopped by the addition of 50 μl of 4.5 M phosphoric acid. The sample is filtered using a […] pore size PVDF filtration device.
(§4) 5 μl of the cleared sample is analyzed on an UPLC HSS T3 column (particle size 1.8 μm, dimensions 2,1×50 mm; Waters) by isocratic elution using 90% 20 mM NaH2PO4 pH 2.2, 10% methanol (v/v).
(§5) HGA is detected electrochemically at 750 mV (mode: DC; polarity: positive) and quantified by integrating peak areas (Empower software; Waters).
(§6) Inhibitors are dissolved in DMSO (dimethylsulfoxide) to a concentration of 0.5 mM. From this stock solution serial five-fold dilutions are prepared in DMSO, which are used in the assay. The respective inhibitor solution accounts for 1% of the assay volume. […] Activities are normalized by setting the uninhibited enzyme activity to 100%. IC50 values are calculated using non-linear regression.
(§7) Purified, mutant HPPD enzymes are obtained by the methods described above. Dose response and kinetic measurements are carried out using the described HPPD activity assay. Apparent michaelis constants (Km) and maximal reaction velocities (Vmax) are calculated by non-linear regression with the software GraphPad Prism 5 (GraphPad Software, La Jolla, USA) using a substrate inhibition model. […] Weighted means (by standard error) of Km and IC50 values are calculated from at least three independent experiments.
(§8) Field performance of the optimized HPPD enzyme, which is used as a herbicide tolerance trait may depend not only on its lack of sensitivity towards HPPD inhibiting herbicides but also on its activity. To assess the potential performance of a herbicide tolerance trait a tolerance index (TI) is calculated using the following formula: […]

[2] = molecular target: T2, Arabidopsis HPPD variant M335H, P336G, E363Q (Arabidopsis thaliana, UniProt P93836, E363Q/M335H/P336G); assay: as above; type: biochemical; settings: normalized to wildtype
T2 construct: His6 (N); made in house; host or cells: E. coli BL21 (DE3)
T2 sequence (P93836 whole entry M335H/P336G/E363Q): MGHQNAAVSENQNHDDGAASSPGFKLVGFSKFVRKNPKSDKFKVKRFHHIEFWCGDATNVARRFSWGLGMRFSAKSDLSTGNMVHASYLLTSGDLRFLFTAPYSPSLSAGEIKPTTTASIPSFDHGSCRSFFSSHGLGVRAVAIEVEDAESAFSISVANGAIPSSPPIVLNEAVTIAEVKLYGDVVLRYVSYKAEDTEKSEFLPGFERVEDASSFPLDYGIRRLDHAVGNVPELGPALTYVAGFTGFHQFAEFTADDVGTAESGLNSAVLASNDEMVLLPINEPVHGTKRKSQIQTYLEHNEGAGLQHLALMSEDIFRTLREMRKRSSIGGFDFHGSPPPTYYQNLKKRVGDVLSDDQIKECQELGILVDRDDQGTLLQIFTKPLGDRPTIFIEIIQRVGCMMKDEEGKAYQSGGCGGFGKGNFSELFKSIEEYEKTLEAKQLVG
Protocol: as §1, §2, §3, §4, §5, §6, §7, §8

[3] = molecular target: T3, Arabidopsis HPPD variant M335H, P336A (Arabidopsis thaliana, UniProt P93836, M335H/P336A); assay: as above; type: biochemical; settings: normalized to wildtype
T3 construct: His6 (N); made in house; host or cells: E. coli BL21 (DE3)
T3 sequence (P93836 whole entry M335H/P336A): as the sequence (P93836 whole entry M335H/P336G/E363Q) above, with G336A, Q363E counted along it
Protocol: as §1, §2, §3, §4, §5, §6, §7, §8

[4] = molecular target: T4, Arabidopsis HPPD variant F381L (Arabidopsis thaliana, UniProt P93836, F381L); assay: as above; type: biochemical; settings: normalized to wildtype
T4 construct: His6 (N); made in house; host or cells: E. coli BL21 (DE3)
T4 sequence (P93836 whole entry F381L): as the sequence (P93836 whole entry M335H/P336G/E363Q) above, with H335M, G336P, Q363E, F381L counted along it
Protocol: as §1, §2, §3, §4, §5, §6, §7, §8

[5] = molecular target: T5, Hordeum HPPD variant L320N (Hordeum vulgare, UniProt O48604, A164G/L320N/R146V/R147D/R148G); assay: as above; type: biochemical; settings: normalized to wild-type
T5 construct: His (N); made in house; host or cells: E. coli BL21 (DE3)
T5 sequence (O48604 whole entry R146V/R147D/R148G/A164G/L320N): as the sequence (O48604 whole entry R146V/R147D/R148G/A164G/S252T) above, with T252S, L320N counted along it
Protocol: as §1, §2, §3, §4, §5, §6, §7, §8

[6] = molecular target: T6, Hordeum HPPD variant F404L (Hordeum vulgare, UniProt O48604, A164G/F404L/R146V/R147D/R148G); assay: as above; type: biochemical; settings: normalized to wild-type
T6 construct: His (N); made in house; host or cells: E. coli BL21 (DE3)
T6 sequence (O48604 whole entry R146V/R147D/R148G/A164G/F404L): as the sequence (O48604 whole entry R146V/R147D/R148G/A164G/S252T) above, with T252S, F404L counted along it
Protocol: as §1, §2, §3, §4, §5, §6, §7, §8

[7] = molecular target: T7, Hordeum HPPD variant L250M (Hordeum vulgare, UniProt O48604, A164G/L250M/R146V/R147D/R148G); assay: as above; type: biochemical; settings: normalized to wild-type
T7 construct: His (N); made in house; host or cells: E. coli BL21 (DE3)
T7 sequence (O48604 whole entry R146V/R147D/R148G/A164G/L250M): as the sequence (O48604 whole entry R146V/R147D/R148G/A164G/S252T) above, with L250M, T252S counted along it
Protocol: as §1, §2, §3, §4, §5, §6, §7, §8

[8] = molecular target: T8, Arabidopsis HPPD variant M335H, P336G (Arabidopsis thaliana, UniProt P93836, M335H/P336G); assay: as above; type: biochemical; settings: normalized to wildtype
T8 construct: His6 (N); made in house; host or cells: E. coli BL21 (DE3)
T8 sequence (P93836 whole entry M335H/P336G): as the sequence (P93836 whole entry M335H/P336G/E363Q) above, with Q363E counted along it
Protocol: as §1, §2, §3, §4, §5, §6, §7, §8

[9] = molecular target: T9, Hordeum HPPD variant L320H (Hordeum vulgare, UniProt O48604, A164G/L320H/R146V/R147D/R148G); assay: as above; type: biochemical; settings: normalized to wild-type
T9 construct: His (N); made in house; host or cells: E. coli BL21 (DE3)
T9 sequence (O48604 whole entry R146V/R147D/R148G/A164G/L320H): as the sequence (O48604 whole entry R146V/R147D/R148G/A164G/S252T) above, with T252S, L320H counted along it
Protocol: as §1, §2, §3, §4, §5, §6, §7, §8

[10] = molecular target: T10, Hordeum HPPD variant L353M, P321R, L320Q (Hordeum vulgare, UniProt O48604, L320Q/L353M/P321R); assay: as above; type: biochemical; settings: normalized to wild-type
T10 construct: His (N); made in house; host or cells: E. coli BL21 (DE3)
T10 sequence (O48604 whole entry R146V/R147D/R148G/A164G/L320Q/P321R/L353M): as the sequence (O48604 whole entry R146V/R147D/R148G/A164G/S252T) above, with T252S, L320Q, P321R, L353M counted along it
Protocol: as §1, §2, §3, §4, §5, §6, §7, §8

[11] = molecular target: T11, Hordeum HPPD variant F377L (Hordeum vulgare, UniProt O48604, A164G/F377L/R146V/R147D/R148G); assay: as above; type: biochemical; settings: normalized to wild-type
T11 construct: His (N); made in house; host or cells: E. coli BL21 (DE3)
T11 sequence (O48604 whole entry R146V/R147D/R148G/A164G/F377L): as the sequence (O48604 whole entry R146V/R147D/R148G/A164G/S252T) above, with T252S, F377L counted along it
Protocol: as §1, §2, §3, §4, §5, §6, §7, §8

[12] = molecular target: T12, Hordeum HPPD variant L353M, P321R, L320N (Hordeum vulgare, UniProt O48604, L320N/L353M/P321R); assay: as above; type: biochemical; settings: normalized to wild-type
T12 construct: His (N); made in house; host or cells: E. coli BL21 (DE3)
T12 sequence (O48604 whole entry R146V/R147D/R148G/A164G/L320N/P321R/L353M): as the sequence (O48604 whole entry R146V/R147D/R148G/A164G/S252T) above, with T252S, L320N, P321R, L353M counted along it
Protocol: as §1, §2, §3, §4, §5, §6, §7, §8

[13] = molecular target: T13, Hordeum HPPD variant L320H, P321A (Hordeum vulgare, UniProt O48604, L320H/P321A); assay: as above; type: biochemical; settings: normalized to wild-type
T13 construct: His (N); made in house; host or cells: E. coli BL21 (DE3)
T13 sequence (O48604 whole entry R146V/R147D/R148G/A164G/L320H/P321A): as the sequence (O48604 whole entry R146V/R147D/R148G/A164G/S252T) above, with T252S, L320H, P321A counted along it
Protocol: as §1, §2, §3, §4, §5, §6, §7, §8

[14] = molecular target: T14, Hordeum HPPD variant R309K (Hordeum vulgare, UniProt O48604, A164G/R146V/R147D/R148G/R309K); assay: as above; type: biochemical; settings: normalized to wild-type
T14 construct: His (N); made in house; host or cells: E. coli BL21 (DE3)
T14 sequence (O48604 whole entry R146V/R147D/R148G/A164G/R309K): as the sequence (O48604 whole entry R146V/R147D/R148G/A164G/S252T) above, with T252S, R309K counted along it
Protocol: as §1, §2, §3, §4, §5, §6, §7, §8

transgenic Soy plants = assay: Greenhouse testing of transgenic Soy plants (T2), herbicide spray test; type: in vivo, Glycine max

Compound: Cn1nnnc1NC(=O)c1c(F)cc(Cl)c(S(C)(=O)=O)c1Cl [Inhibitor 1, 2,4-dichloro-6-fluoro-3-methylsulfonyl-N-(1-methyltetrazol-5-yl)benzamide]
- Normalized tolerance index (TI) [1]: 1.8
- Normalized tolerance index (TI) [2]: 0.2
- Normalized tolerance index (TI) [3]: 0.6
- Normalized tolerance index (TI) [4]: 1.2
- Normalized tolerance index (TI) [5]: 5.2
- Normalized tolerance index (TI) [6]: 1.6
- Normalized tolerance index (TI) [7]: 3.1
- Normalized tolerance index (TI) [8]: 0.5
- Normalized tolerance index (TI) [9]: 4 and 4.6
- Normalized tolerance index (TI) [10]: 2.5
- Normalized tolerance index (TI) [11]: 11.8
- Normalized tolerance index (TI) [12]: 1.9
- Normalized tolerance index (TI) [13]: 3.7
- Normalized tolerance index (TI) [14]: 2.6

Compound: CSc1c(Cl)cc(F)c(C(=O)Nc2ncnn2C)c1Cl [Inhibitor 3, 2,4-dichloro-6-fluoro-3-methylsulfanyl-N-(2-methyl-1,2,4-triazol-3-yl)benzamide]
- Injury evaluation, scale 0-100% (transgenic Soy plants; Soy AtHPPD Event 1, 31.25 g/ha, two weeks): 10%
- Injury evaluation, scale 0-100% (transgenic Soy plants; Soy AtHPPD Event 1, 62.5 g/ha, two weeks): 16%
- Injury evaluation, scale 0-100% (transgenic Soy plants; Soy AtHPPD Event 1, 125 g/ha, two weeks): 44%
- Injury evaluation, scale 0-100% (transgenic Soy plants; Soy AtHPPD Event 2, 31.25 g/ha, two weeks): 13%
- Injury evaluation, scale 0-100% (transgenic Soy plants; Soy AtHPPD Event 2, 62.5 g/ha, two weeks): 23%
- Injury evaluation, scale 0-100% (transgenic Soy plants; Soy AtHPPD Event 2, 125 g/ha, two weeks): 40%
- Injury evaluation, scale 0-100% (transgenic Soy plants; Soy AtL385V, I393L Event 2, 31.25 g/ha, two weeks): 20%
- Injury evaluation, scale 0-100% (transgenic Soy plants; Soy AtL385V, I393L Event 2, 62.5 g/ha, two weeks): 35%
- Injury evaluation, scale 0-100% (transgenic Soy plants; Soy AtL385V, I393L Event 2, 125 g/ha, two weeks): 38%
- Injury evaluation, scale 0-100% (transgenic Soy plants; Soy AtM335H Event 1, 31.25 g/ha, two weeks): 10%
- Injury evaluation, scale 0-100% (transgenic Soy plants; Soy AtM335H Event 1, 62.5 g/ha, two weeks): 21%
- Injury evaluation, scale 0-100% (transgenic Soy plants; Soy AtM335H Event 1, 125 g/ha, two weeks): 33%
- Injury evaluation, scale 0-100% (transgenic Soy plants; Soy AtM335H Event 2, 31.25 g/ha, two weeks): 14%
- Injury evaluation, scale 0-100% (transgenic Soy plants; Soy AtM335H Event 2, 62.5 g/ha, two weeks): 29%
- Injury evaluation, scale 0-100% (transgenic Soy plants; Soy AtM335H Event 2, 125 g/ha, two weeks): 31%
- Injury evaluation, scale 0-100% (transgenic Soy plants; Soy AtM335Y, 31.25 g/ha, two weeks): 9%
- Injury evaluation, scale 0-100% (transgenic Soy plants; Soy AtM335Y, 62.5 g/ha, two weeks): 45%
- Injury evaluation, scale 0-100% (transgenic Soy plants; Soy AtM335Y, 125 g/ha, two weeks): 46%
- Injury evaluation, scale 0-100% (transgenic Soy plants; Soy AtP336A, E363Q, L385V, I393L, 31.25 g/ha, two weeks): 30%
- Injury evaluation, scale 0-100% (transgenic Soy plants; Soy AtP336A, E363Q, L385V, I393L, 62.5 g/ha, two weeks): 30%
- Injury evaluation, scale 0-100% (transgenic Soy plants; Soy AtP336A, E363Q, L385V, I393L, 125 g/ha, two weeks): 50%
- Injury evaluation, scale 0-100% (transgenic Soy plants; Soy GmHPPD1, 31.25 g/ha, two weeks): 15%
- Injury evaluation, scale 0-100% (transgenic Soy plants; Soy GmHPPD1, 62.5 g/ha, two weeks): 29%
- Injury evaluation, scale 0-100% (transgenic Soy plants; Soy GmHPPD1, 125 g/ha, two weeks): 46%
- Injury evaluation, scale 0-100% (transgenic Soy plants; Soy, transgene none, 31.25 g/ha, two weeks after treatment): 49%
- Injury evaluation, scale 0-100% (transgenic Soy plants; Soy, transgene none, 62.5 g/ha, two weeks after treatment): 68%
- Injury evaluation, scale 0-100% (transgenic Soy plants; Soy, transgene none, 125 g/ha, two weeks after treatment): 79%
- Normalized tolerance index (TI) [1]: 11.1
- Normalized tolerance index (TI) [2]: 0.3
- Normalized tolerance index (TI) [3]: 0.2
- Normalized tolerance index (TI) [4]: 0.2
- Normalized tolerance index (TI) [6]: 1.8
- Normalized tolerance index (TI) [7]: 1
- Normalized tolerance index (TI) [8]: 0.1
- Normalized tolerance index (TI) [9]: 1.9
- Normalized tolerance index (TI) [11]: 2
- Normalized tolerance index (TI) [12]: 0.9
- Normalized tolerance index (TI) [13]: 14.3
- Normalized tolerance index (TI) [14]: 3
